The values that follow are results of earlier work, collected in patent publication US10231947B2, “Isochroman compounds and methods of use thereof” (ARIZONA BOARD OF REGENTS ON BEHALF OF ARIZONA STATE …, priority 2017, dated 2019).

Broadly, the pEC50 is the negative decadic logarithm of the EC50, by convention in mol/L. What is called pKd is the Kd on a negative log10 scale, so that one unit is a factor of ten.

For one data set, the target named is hRXRβ (Homo sapiens, UniProt P28702). To be noted: read-out: EC50 for the hRXRβ isoform.
Data set [1] deals with hRXR. To be noted: Caco-2 cells.
Data set [2] has as its system hRXR. To be noted: Caco-2 cells. The source holds these as a separate data set.

pEC50, pKd: −log10 of the molar value.

hRXRβ, sequence (P28702 whole entry, canonical isoform): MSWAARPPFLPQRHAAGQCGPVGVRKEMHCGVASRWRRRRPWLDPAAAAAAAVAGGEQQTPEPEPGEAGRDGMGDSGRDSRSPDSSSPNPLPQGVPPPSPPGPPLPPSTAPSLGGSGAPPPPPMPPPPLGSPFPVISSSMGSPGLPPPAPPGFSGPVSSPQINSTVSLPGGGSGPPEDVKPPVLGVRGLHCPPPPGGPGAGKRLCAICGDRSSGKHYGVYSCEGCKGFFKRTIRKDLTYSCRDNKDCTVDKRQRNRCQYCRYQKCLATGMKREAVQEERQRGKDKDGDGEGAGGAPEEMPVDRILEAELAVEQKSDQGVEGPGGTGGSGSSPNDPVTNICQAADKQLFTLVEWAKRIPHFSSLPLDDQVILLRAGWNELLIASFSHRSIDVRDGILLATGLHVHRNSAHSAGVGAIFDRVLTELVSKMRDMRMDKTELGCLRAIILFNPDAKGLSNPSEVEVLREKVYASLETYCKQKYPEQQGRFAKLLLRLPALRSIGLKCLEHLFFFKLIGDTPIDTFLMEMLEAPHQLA

For `Cc1cc2c(cc1-c1cc(/C=C/C(=O)O)ccc1O)C(C)(C)CCC2(C)C` [CD3254], on hRXRβ, the pEC50 is about 8.00.

Take `C=C(c1ccc(C(=O)O)c(F)c1)c1cc2c(cc1C)C(C)(C)CCC2(C)C` [compound 3]: at hRXR [1], the pKd is 7.92. For the same compound, the pEC50 with hRXR [2] was 7.37.
